Test results published in ChEMBL document CHEMBL1201862, “PubChem BioAssay data set” (2004).
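Interpolation was linear, between the two tested concentrations surrounding the appropriate level; five concentrations were tested over 48 hours in 96-well plates. GI50: concentration for 50% inhibition of growth.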 Calls of active or inactive are those of the source. No stated cut-off is given here; in the data, active = GI50 up to about 1.1 µM and inactive = higher. *1 amine or outer side, *2 acyl side, *3 side chain or, on linkers, in order; H or OH if unused. Where a SMILES comes first, the peptide text is derived from it. [ ]: non-standard residue; d: D form. The star is where a group is joined. ξ: configuration not given here. NMeY = CN[C@@H](Cc1ccc(O)cc1)C(=O)O; Ethylenediamine = C(CN[*:2])N[*:1]; ξNMeL = CNC(CC(C)C)C(=O)O; Cbz = O=C(OCc1ccccc1)*; Lac = C[C@H](O)C(=O)O; ξA = CC(N)C(=O)O

How the values were obtained:
Assay in all cases: NCI anticancer screen, dose series, 48 h
SK-MEL-2 = system: SK-MEL-2
U-251 = system: U-251
RPMI-8226 = system: RPMI-8226
EKVX = system: EKVX
NCI-H460 = system: NCI-H460
K562 = system: K562
UACC-257 = system: UACC-257
HOP-62 = system: HOP-62
NCI-H522 = system: NCI-H522
MDA-MB-435 = system: MDA-MB-435
TK-10 = system: TK-10
HCT-116 = system: HCT-116
SN12C = system: SN12C
SNB-75 = system: SNB-75
SK-OV-3 = system: SK-OV-3
OVCAR-8 = system: OVCAR-8
UACC-62 = system: UACC-62
NCI/ADR-RES = system: NCI/ADR-RES
MDA-MB-231 = system: MDA-MB-231
ACHN = system: ACHN

SMILES | GI50 (SK-MEL-2) | GI50 (U-251) | GI50 (RPMI-8226) | GI50 (EKVX) | GI50 (NCI-H460) | GI50 (K562) | GI50 (UACC-257) | GI50 (HOP-62) | GI50 (NCI-H522) | GI50 (MDA-MB-435) | GI50 (TK-10) | GI50 (HCT-116) | GI50 (SN12C) | GI50 (SNB-75) | GI50 (SK-OV-3) | GI50 (OVCAR-8) | GI50 (UACC-62) | GI50 (NCI/ADR-RES) | GI50 (MDA-MB-231) | GI50 (ACHN)
N#Cc1c(N)n(C2OC(CO)C(O)C2O)c2ncnc(N)c12 (stereo not given) | 0.0521 µM (active) | 0.114 µM (active) | 0.184 µM (active) | 0.135 µM (active) | 0.288 µM (active) | 0.048 µM (active) | 0.091 µM (active) | 0.0335 µM (active) | 0.135 µM (active) | 0.0212 µM (active) | 0.0211 µM (active) | 0.0195 µM (active) | 0.0186 µM (active) | 0.0798 µM (active) | 0.0649 µM (active) | 0.014 µM (active) | 0.0168 µM (active) | 0.0243 µM (active) | 0.0364 µM (active) | 0.0312 µM (active)
CSc1c(CC(=O)O)n(Cc2ccccc2)c2ccccc12 | > 100 µM (inactive) | > 100 µM (inactive) | 71.1 µM (inactive) | 74.5 µM (inactive) | 60.8 µM (inactive) | 72.3 µM (inactive) | > 100 µM (inactive) | > 100 µM (inactive) | 89.3 µM (inactive) | > 100 µM (inactive) | > 100 µM (inactive) | > 100 µM (inactive) | > 100 µM (inactive) | > 100 µM (inactive) | > 100 µM (inactive) | > 100 µM (inactive) | 81.3 µM (inactive) | > 100 µM (inactive) | > 100 µM (inactive) | > 100 µM (inactive)
CCC1=C(c2ccc(OC)cc2)CC[C@@]2(CCNC2=O)[C@@H]1C | > 90.8 µM (inactive) | > 100 µM (inactive) | > 46.1 µM (inactive) | 59.4 µM (inactive) | > 100 µM (inactive) | 26.5 µM (inactive) | 28.2 µM (inactive) | > 100 µM (inactive) | 32.4 µM (inactive) | > 61.4 µM (inactive) | > 100 µM (inactive) | 76.2 µM (inactive) | > 100 µM (inactive) | > 73.8 µM (inactive) | > 100 µM (inactive) | > 100 µM (inactive) | > 100 µM (inactive) | > 74.1 µM (inactive) | > 100 µM (inactive) | > 89.7 µM (inactive)
COc1ccc(CCCCl)c(C2=NCCc3ccccc32)c1 | 61.7 µM (inactive) | 9.75 µM (inactive) | 2.99 µM (inactive) | 37.7 µM (inactive) | 36.4 µM (inactive) | 14.6 µM (inactive) | 34.7 µM (inactive) | 33.4 µM (inactive) | 6.75 µM (inactive) | 26.2 µM (inactive) | > 100 µM (inactive) | 29.5 µM (inactive) | 9.91 µM (inactive) | 29.1 µM (inactive) | > 100 µM (inactive) | 35.4 µM (inactive) | 84.5 µM (inactive) | > 100 µM (inactive) | 25.1 µM (inactive) | > 100 µM (inactive)
C/C(=N\Nc1nc2ccccc2[nH]1)c1ncccn1 | 2.01 µM (inactive) | 0.0462 µM (active) | 0.0585 µM (active) | 0.026 µM (active) | 0.0299 µM (active) | 0.044 µM (active) | 0.136 µM (active) | 1.64 µM (inactive) | < 0.0164 µM (active) | 0.0968 µM (active) | 1.31 µM (inactive) | 0.0226 µM (active) | 0.0715 µM (active) | 0.119 µM (active) | 0.214 µM (active) | 0.043 µM (active) | 0.0693 µM (active) | 0.0608 µM (active) | 0.059 µM (active) | < 0.0232 µM (active)
Nc1nc(O)c(Br)c(-c2cccc([N+](=O)[O-])c2)n1 | > 100 µM (inactive) | > 100 µM (inactive) | 37.8 µM (inactive) | > 100 µM (inactive) | > 81.8 µM (inactive) | > 91.4 µM (inactive) | > 55 µM (inactive) | > 100 µM (inactive) | 26.4 µM (inactive) | > 100 µM (inactive) | > 100 µM (inactive) | > 100 µM (inactive) | > 100 µM (inactive) | 55 µM (inactive) | > 61.9 µM (inactive) | 73.5 µM (inactive) | > 51.9 µM (inactive) | > 100 µM (inactive) | > 100 µM (inactive) | > 67.9 µM (inactive)
COc1ccc(C[C@@H](C(=O)NCCNC(=O)C(CC(C)C)N(C)C(=O)[C@@H]2CCCN2C(=O)[C@H](C)O)N(C)C(=O)[C@@H]2CCCN2C(=O)[C@H](CC(C)C)NC(=O)C(C)NC(=O)OCc2ccccc2)cc1 (stereo not given in full) (Cbz-[ξA]LP[NMeY](Me)-{Ethylenediamine-ξNMeL-Pro-Lac}) | > 100 µM (inactive) | > 100 µM (inactive) | 33.9 µM (inactive) | > 100 µM (inactive) | > 100 µM (inactive) | 40.6 µM (inactive) | 46.1 µM (inactive) | > 100 µM (inactive) | > 100 µM (inactive) | 54.2 µM (inactive) | > 100 µM (inactive) | > 100 µM (inactive) | > 100 µM (inactive) | 89.5 µM (inactive) | > 100 µM (inactive) | > 100 µM (inactive) | 96.2 µM (inactive) | > 100 µM (inactive) | 91.4 µM (inactive) | > 100 µM (inactive)
CO[C@H]1Nc2c(ccc(C)c2O)C(=O)N2C=C(/C=C/C(N)=O)C[C@@H]12 [ANTHRAMYCIN METHYL ETHER] | 0.0151 µM (active) | 0.0162 µM (active) | 0.0242 µM (active) | 0.0462 µM (active) | 0.0322 µM (active) | 0.0396 µM (active) | 0.0596 µM (active) | 0.0186 µM (active) | 0.0222 µM (active) | 0.014 µM (active) | 0.0585 µM (active) | 0.0382 µM (active) | 0.0221 µM (active) | 0.0228 µM (active) | 0.0405 µM (active) | 0.0394 µM (active) | 0.0151 µM (active) | 0.0315 µM (active) | 0.0159 µM (active) | 0.0181 µM (active)
